Measurements reported in patent publication US10206394B2, “Herbicidal compounds” (Syngenta Participations AG, priority 2014, dated 2019).
Read-outs that look alike come from different tables or passages of the source.

Columns and labels:
Experiment in all cases: Glasshouse assay for herbicidal activity (pre- and post-emergence), percentage phytotoxicity
Format in all cases: in vivo
[1] = tested on: Echinochloa crus-galli (ECHCG); settings: Echinochloa crus-galli
Method in brief: (§1)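 Seeds were sown in standard soil in pots and grown one day (pre-emergence) or about 12 days (post-emergence) before herbicide application. Plants were kept at 24/18 °C (warm-climate) or 20/16 °C (cool-climate) day/night, 16 h light, 65% humidity, watered twice daily, and damage was scored visually at 15 DAA (POST) or 20 DAA (PRE).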

[2] = tested on: Alopecurus myosuroides (ALOMY); settings: Alopecurus myosuroides
Method in brief: as §1

[3] = tested on: Avena fatua (AVEFA); settings: Avena fatua
Method in brief: as §1

[4] = tested on: Lolium perenne (LOLPE); settings: Lolium perenne
Method in brief: as §1

Compound: Cc1cc(C)c(C2C(=O)CC(CC(=O)N3CC(C)CC(C)C3)C2=O)c(C)c1 (centres unmarked) [Compound A173]
- pest or weed control at 250 g/ha ([1]; post-emergence, 360 h, post-emergence, 250 g/ha, 15 DAA, visual score (100%=total damage; 0%=no damage), read-out: ECHCG POST herbicidal activity (percentage phytotoxicity)): 30%
- pest or weed control at 250 g/ha ([1]; pre-emergence, 480 h, pre-emergence, 250 g/ha, 20 DAA, visual score (100%=total damage; 0%=no damage), read-out: ECHCG PRE herbicidal activity (percentage phytotoxicity)): 10%
- pest or weed control at 250 g/ha ([2]; post-emergence, 360 h, post-emergence, 250 g/ha, 15 DAA, visual score (100%=total damage; 0%=no damage), read-out: ALOMY POST herbicidal activity (percentage phytotoxicity)): 20%
- pest or weed control at 250 g/ha ([2]; pre-emergence, 480 h, pre-emergence, 250 g/ha, 20 DAA, visual score (100%=total damage; 0%=no damage), read-out: ALOMY PRE herbicidal activity (percentage phytotoxicity)): 50%
- pest or weed control at 250 g/ha ([3]; post-emergence, 360 h, post-emergence, 250 g/ha, 15 DAA, visual score (100%=total damage; 0%=no damage), read-out: AVEFA POST herbicidal activity (percentage phytotoxicity)): 30%
- pest or weed control at 250 g/ha ([3]; pre-emergence, 480 h, pre-emergence, 250 g/ha, 20 DAA, visual score (100%=total damage; 0%=no damage), read-out: AVEFA PRE herbicidal activity (percentage phytotoxicity)): 10%
- pest or weed control at 250 g/ha ([4]; post-emergence, 360 h, post-emergence, 250 g/ha, 15 DAA, visual score (100%=total damage; 0%=no damage), read-out: LOLPE POST herbicidal activity (percentage phytotoxicity)): 60%
- pest or weed control at 250 g/ha ([4]; pre-emergence, 480 h, pre-emergence, 250 g/ha, 20 DAA, visual score (100%=total damage; 0%=no damage), read-out: LOLPE PRE herbicidal activity (percentage phytotoxicity)): 80%

Compound: C/C=C/c1cc(C)c(C2C(=O)CC(CC(=O)NCc3ccc(OC)cc3)C2=O)c(C)c1 (centres unmarked) [Compound B243]
- pest or weed control at 250 g/ha ([1]; post-emergence, 360 h, POST-emergence, rate 250 g/ha, visual score 15 DAA (100%=total damage, 0%=no damage), read-out: Post-emergence herbicidal activity (percentage phytotoxicity) ECHCG POST): 90%
- pest or weed control at 250 g/ha ([1]; pre-emergence, 480 h, PRE-emergence, rate 250 g/ha, visual score 20 DAA (100%=total damage, 0%=no damage), read-out: Pre-emergence herbicidal activity (percentage phytotoxicity) ECHCG PRE): 0%
- pest or weed control at 250 g/ha ([2]; post-emergence, 360 h, POST-emergence, rate 250 g/ha, visual score 15 DAA (100%=total damage, 0%=no damage), read-out: Post-emergence herbicidal activity (percentage phytotoxicity) ALOMY POST): 80%
- pest or weed control at 250 g/ha ([2]; pre-emergence, 480 h, PRE-emergence, rate 250 g/ha, visual score 20 DAA (100%=total damage, 0%=no damage), read-out: Pre-emergence herbicidal activity (percentage phytotoxicity) ALOMY PRE): 0%
- pest or weed control at 250 g/ha ([3]; post-emergence, 360 h, POST-emergence, rate 250 g/ha, visual score 15 DAA (100%=total damage, 0%=no damage), read-out: Post-emergence herbicidal activity (percentage phytotoxicity) AVEFA POST): 50%
- pest or weed control at 250 g/ha ([3]; pre-emergence, 480 h, PRE-emergence, rate 250 g/ha, visual score 20 DAA (100%=total damage, 0%=no damage), read-out: Pre-emergence herbicidal activity (percentage phytotoxicity) AVEFA PRE): 0%
- pest or weed control at 250 g/ha ([4]; post-emergence, 360 h, POST-emergence, rate 250 g/ha, visual score 15 DAA (100%=total damage, 0%=no damage), read-out: Post-emergence herbicidal activity (percentage phytotoxicity) LOLPE POST): 70%
- pest or weed control at 250 g/ha ([4]; pre-emergence, 480 h, PRE-emergence, rate 250 g/ha, visual score 20 DAA (100%=total damage, 0%=no damage), read-out: Pre-emergence herbicidal activity (percentage phytotoxicity) LOLPE PRE): 0%

Compound: Cc1cc(C)c(C2C(=O)CC(CC(=O)NCc3ccc(Cl)cc3)C2=O)c(C)c1 (centres unmarked) [Compound B13]
- pest or weed control at 250 g/ha ([1]; post-emergence, 360 h, 250 g/ha, post-emergence, 15 DAA, visual assessment (100%=total damage, 0%=no damage), read-out: Post-emergence herbicidal activity (percentage phytotoxicity) ECHCG POST): 80%
- pest or weed control at 250 g/ha ([1]; pre-emergence, 480 h, 250 g/ha, pre-emergence, 20 DAA, visual assessment (100%=total damage, 0%=no damage), read-out: Pre-emergence herbicidal activity (percentage phytotoxicity) ECHCG PRE): 90%
- pest or weed control at 250 g/ha ([2]; post-emergence, 360 h, 250 g/ha, post-emergence, 15 DAA, visual assessment (100%=total damage, 0%=no damage), read-out: Post-emergence herbicidal activity (percentage phytotoxicity) ALOMY POST): 50%
- pest or weed control at 250 g/ha ([2]; pre-emergence, 480 h, 250 g/ha, pre-emergence, 20 DAA, visual assessment (100%=total damage, 0%=no damage), read-out: Pre-emergence herbicidal activity (percentage phytotoxicity) ALOMY PRE): 50%
- pest or weed control at 250 g/ha ([3]; post-emergence, 360 h, 250 g/ha, post-emergence, 15 DAA, visual assessment (100%=total damage, 0%=no damage), read-out: Post-emergence herbicidal activity (percentage phytotoxicity) AVEFA POST): 70%
- pest or weed control at 250 g/ha ([3]; pre-emergence, 480 h, 250 g/ha, pre-emergence, 20 DAA, visual assessment (100%=total damage, 0%=no damage), read-out: Pre-emergence herbicidal activity (percentage phytotoxicity) AVEFA PRE): 40%
- pest or weed control at 250 g/ha ([4]; post-emergence, 360 h, 250 g/ha, post-emergence, 15 DAA, visual assessment (100%=total damage, 0%=no damage), read-out: Post-emergence herbicidal activity (percentage phytotoxicity) LOLPE POST): 90%
- pest or weed control at 250 g/ha ([4]; pre-emergence, 480 h, 250 g/ha, pre-emergence, 20 DAA, visual assessment (100%=total damage, 0%=no damage), read-out: Pre-emergence herbicidal activity (percentage phytotoxicity) LOLPE PRE): 90%

Compound: C#CCNC(=O)CC1CC(=O)C(c2c(C)cc(-c3ncc(Cl)cc3F)cc2C)C1=O (centres unmarked) [Compound A69]
- pest or weed control at 250 g/ha ([1]; post-emergence, 360 h, Rate 250 g/ha, post-emergence, assessed visually 15 DAA, 100%=total damage, 0%=no damage, read-out: Post-emergence herbicidal activity (percentage phytotoxicity) ECHCG POST): 100%
- pest or weed control at 250 g/ha ([1]; pre-emergence, 480 h, Rate 250 g/ha, pre-emergence, assessed visually 20 DAA, 100%=total damage, 0%=no damage, read-out: Pre-emergence herbicidal activity (percentage phytotoxicity) ECHCG PRE): 100%
- pest or weed control at 250 g/ha ([2]; post-emergence, 360 h, Rate 250 g/ha, post-emergence, assessed visually 15 DAA, 100%=total damage, 0%=no damage, read-out: Post-emergence herbicidal activity (percentage phytotoxicity) ALOMY POST): 100%
- pest or weed control at 250 g/ha ([2]; pre-emergence, 480 h, Rate 250 g/ha, pre-emergence, assessed visually 20 DAA, 100%=total damage, 0%=no damage, read-out: Pre-emergence herbicidal activity (percentage phytotoxicity) ALOMY PRE): 100%
- pest or weed control at 250 g/ha ([3]; post-emergence, 360 h, Rate 250 g/ha, post-emergence, assessed visually 15 DAA, 100%=total damage, 0%=no damage, read-out: Post-emergence herbicidal activity (percentage phytotoxicity) AVEFA POST): 100%
- pest or weed control at 250 g/ha ([3]; pre-emergence, 480 h, Rate 250 g/ha, pre-emergence, assessed visually 20 DAA, 100%=total damage, 0%=no damage, read-out: Pre-emergence herbicidal activity (percentage phytotoxicity) AVEFA PRE): 100%
- pest or weed control at 250 g/ha ([4]; post-emergence, 360 h, Rate 250 g/ha, post-emergence, assessed visually 15 DAA, 100%=total damage, 0%=no damage, read-out: Post-emergence herbicidal activity (percentage phytotoxicity) LOLPE POST): 100%
- pest or weed control at 250 g/ha ([4]; pre-emergence, 480 h, Rate 250 g/ha, pre-emergence, assessed visually 20 DAA, 100%=total damage, 0%=no damage, read-out: Pre-emergence herbicidal activity (percentage phytotoxicity) LOLPE PRE): 100%
